Measured values from US11491117B2, “Compounds for the prevention and treatment of glucose intolerance related conditions and obesity” (SORBONNE UNIVERSITÉ, priority 2017, dated 2022).

Legend:
[1] = tested on: adipose tissue gene expression; experiment: Quantitative RT-PCR in retroperitoneal fat pads of chronically treated mice; type: in vivo, mouse
Method: Transcript abundance of key genes regulating adipose tissue biology was tested by quantitative RT-PCR in retroperitoneal fat pads of mice fed control chow diet (CHD) or high fat diet (HFD). Data were analyzed using the unpaired Mann-Whitney test. […] RNA was extracted from pancreas, adipose tissue and liver using the RNeasy RNA Mini Kit (Qiagen, Courtaboeuf, France). Reverse transcription was performed from a 20 μL reaction mixture with 500 ng RNA using M-MLV reverse transcriptase kit (ThermoFisher, Villebon, France). Quantitative RT-PCR was performed using sequence specific primers and the MESA green kit for SYBR green assays (Eurogentec, Angers, France). We used 18S and/or cyclophilin house keeping genes to normalize relative quantification of mRNA levels using the Livak and […] methods ([…], 2001).

Goto-Kakizaki (GK) rats = experiment: Chronic subcutaneous infusion in Goto-Kakizaki rats: body and organ weight, glucose homeostasis (IPGTT), insulin secretion; type: in vivo, rat
Method: The animal experiments on rats were conducted on diabetic adult 8 months aged male Goto-Kakizaki (GK) rats from the local colony of Paris-Diderot University (Paris, France). GK strain derived after backcrossing of animals selected at the upper limit of normal distribution for glucose tolerance. Characteristics of GK rats have been previously described. Rats had free access to a control carbohydrate diet (CHD) (D 12450Ki, Research diets, NJ) and were kept on 12 h light/dark cycle. […] Rats were killed by decapitation and blood and organs collected for measurement of metabolic parameters, islet isolation for quantitative RT-PCR analysis and immunohistochemistry. […] After three weeks of metabolite treatment (i.e. four weeks of HFD feeding) an intra-peritoneal glucose tolerance test (IPGTT) (2 g/kg) was performed in conscious mice following an overnight fast. Blood was collected from the tail vein before glucose injection and 15, 30, 60 and 120 minutes afterwards. Additional blood samples were collected during the IPGTT in GK rats 15, 90, 180 and 240 minutes after glucose injection. Blood glucose levels were determined using an Accu-Check® Performa (Roche Diagnostics, Meylan, France). Additional blood samples were collected at base line and 30 minutes after glucose injection in Microvette® CB 300 Lithium Heparin ([…], France). Plasma was separated by centrifugation and stored at -80° C. until insulin radioimmunoassay. Evaluation of overall glucose tolerance was obtained from cumulative glycemia (GCum) and the ΔG, which were determined by the total increment of plasma glucose values during the IPGTT (GCum) and the cumulative glycemia during the test above baseline (ΔG). After six weeks of metabolite treatment, mice were killed by decapitation and organ were dissected and weighed. Half of liver, fat and pancreas samples were snap frozen in liquid nitrogen and stored at -80° C. for molecular studies, and the second half processed for histopathology. All procedures were authorized following review by the institutional ethic committee and carried out under national license condition (Ref 00486.02). Blood glucose was measured using an Accu-Check® Performa (Roche Diagnostics, Meylan, France) and plasma insulin was determined using Insulin ELISA kits (Mercodia, Uppsala, Sweden). For determination of liver triglycerides, liver samples (100 mg) were homogenized and incubated in NonidetP-40 (5%) and supernatants containing triglycerides were collected. Triglycerides concentration was quantified in the supernatant fraction using a colorimetric assay (ab65336, Abcam, Paris, France) by measuring OD at 570 nm. The ratio NAD/NADH was determined using a quantification kit (MAK037; […] Samples were homogenized in the extraction buffer and clarified by centrifugation. Supernatant was deproteinized by filtration through a 10-kDa cutoff spin filter (Millipore SAS, Molsheim, France). The assay was then performed according to the manufacturer's instructions.

[2] = biological target: dual specificity tyrosine phosphorylation regulated kinase DYRK1A (Homo sapiens, UniProt Q13627); experiment: In vitro interaction analysis (DiscoverX) by determination of the EC50

Structure (SMILES): Cc1ccc(O)cc1 [4-cresol]
- Ucp1 expression in adipose tissue ([1]; CHD fed mice): markedly downregulated
- expression of Sirt1, Cav2, Hsl and Pnpla2 (Atg1) in adipose tissue ([1]; CHD fed mice): significantly stimulated
- Ucp1 expression in adipose tissue ([1]; HFD-fed mice, vs HFD saline and CHD 4-cresol): significantly downregulated
- expression of Hsl and Pnpla2 in adipose tissue ([1]; HFD-fed mice, vs saline treated fat fed mice): significantly upregulated
- fasting glycemia (Goto-Kakizaki (GK) rats): significant reduction
- glycemic response to the glucose challenge throughout the IPGTT (glucose intolerance) (Goto-Kakizaki (GK) rats): decrease
- cumulative glycemia (Goto-Kakizaki (GK) rats; IPGTT): significant drop
- increase in pancreas weight (Goto-Kakizaki (GK) rats; P<0.01): +94.6%
- BMI (Goto-Kakizaki (GK) rats; chronic administration 6 weeks): no effect
- body weight (Goto-Kakizaki (GK) rats; chronic administration 6 weeks): no effect
- fasting insulinemia (Goto-Kakizaki (GK) rats; vs saline): significantly more elevated
- glucose-induced insulin secretion during the IPGTT (Goto-Kakizaki (GK) rats; vs saline): significantly more elevated
- binding to DYRK1A [2]: does bind
